Read-outs that look alike come from different tables or passages of the source.
How the values were obtained:
DYRK1A [1] = molecular target: T1, DYRK1A (Rattus norvegicus, UniProt Q63470); experiment: In vitro kinase assay DYRK1A, Woodtide substrate; assay type: biochemical
Description: (§1) It was also tested as positive control and its IC50 values were compared to those obtained for the compounds under study.
(§2) Buffer A: MgCl2 (10 mM), 1 mM ethylene glycol-bis(2-aminoethylether)-N,N,N’,N’- tetraacetic acid (EGTA), 1 mM dithiothreitol (DTT), 25 mM Tris-HCl pH 7.5, 50 μg heparin/mL. Buffer B: β-Glycerophosphate (60 mM), 30 mM p-nitrophenylphosphate, 25 mM 3-(N-morpholino) propanesulfonic acid (Mops) (pH 7.2), 5 mM EGTA, 15 mM MgCl2, 1 mM DTT, 0.1 mM sodium vanadate.
(§3) Blank values were substracted and activities expressed in % of the maximal activity, i.e., in the absence of inhibitors. Controls were performed with appropriate dilutions of dimethylsulfoxide (DMSO). IC50 values were calculated from dose-response curves established by Sigma-Plot graphs. The GSK-3, CK1, DYRK1A and CLK1 peptide substrates were obtained from Proteogenix (Oberhausbergen, France).
(§4) CDK5/p25. (Human, recombinant) was prepared as previously described. […] ATP (3000 Ci/mmol; 10 mCi/mL) in a final volume of 30 μL. After 30 min incubation at 30 °C, 25 μL aliquots of supernatant were spotted onto sheets of P81 phosphocellulose paper (Whatman) and 20 s later, the filters were washed eight times (for at least 5 min each time) in a solution of 10 mL phosphoric acid/L of water. The wet filters were counted in the presence of 1 mL ACS (Amersham, UK) scintillation fluid.

GSK-3α/β = experiment: In vitro kinase assay GSK-3α/β, GS-1 peptide substrate; assay type: biochemical, Porcine
Description: as §1, §2, §3, §4
GSK-3α/β. (Porcine brain, native) was assayed, as described for CDK5/p25 but in buffer A and using a GSK-3 specific substrate (GS-1: […]pSEDEEE) (pS stands for phosphorylated serine).

CDK5/p25 = molecular target: T2, CDK5/p25 (Homo sapiens, UniProt Q00535); experiment: In vitro kinase assay CDK5/p25, [γ-33P]ATP, histone H1 substrate; assay type: biochemical
T2 construct: made in house
T2 sequence (Q00535 whole entry): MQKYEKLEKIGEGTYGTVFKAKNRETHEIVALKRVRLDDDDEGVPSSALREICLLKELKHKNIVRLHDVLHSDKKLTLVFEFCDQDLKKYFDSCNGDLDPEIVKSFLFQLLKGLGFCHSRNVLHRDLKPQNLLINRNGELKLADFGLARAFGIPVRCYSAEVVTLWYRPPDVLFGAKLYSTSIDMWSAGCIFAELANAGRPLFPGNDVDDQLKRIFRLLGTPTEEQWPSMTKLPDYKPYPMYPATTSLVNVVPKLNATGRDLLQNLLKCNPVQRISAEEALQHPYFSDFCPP
T2 sequence (Q15078 99-307 partner limits assumed): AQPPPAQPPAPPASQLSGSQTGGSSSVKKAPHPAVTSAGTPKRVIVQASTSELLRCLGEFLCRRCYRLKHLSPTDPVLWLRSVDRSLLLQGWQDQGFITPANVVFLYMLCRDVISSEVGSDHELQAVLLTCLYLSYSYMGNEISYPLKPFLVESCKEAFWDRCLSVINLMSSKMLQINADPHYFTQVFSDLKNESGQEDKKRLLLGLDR
Description: as §1, §2, §3, §4

CK1δ/ε = experiment: In vitro kinase assay CK1δ/ε, CK1-specific peptide substrate; assay type: biochemical, Porcine; conditions: 15 μM ATP, 30 min, 30 °C, triplicate; <50% inhibition at 10 μM = IC50 >10 μM
Description: as §1, §2, §3, §4
CK1δ/ε. (Porcine brain, native) was assayed as described for CDK5/p25 but using the CK1-specific peptide substrate […]pSAYSITA [37].

CLK1 [2] = molecular target: T3, CLK1 (Homo sapiens, UniProt P49759); conditions: read-out: CLK1 IC50, 15 μM ATP, 30 min, 30 °C, triplicate
T3 sequence (P49759 whole entry): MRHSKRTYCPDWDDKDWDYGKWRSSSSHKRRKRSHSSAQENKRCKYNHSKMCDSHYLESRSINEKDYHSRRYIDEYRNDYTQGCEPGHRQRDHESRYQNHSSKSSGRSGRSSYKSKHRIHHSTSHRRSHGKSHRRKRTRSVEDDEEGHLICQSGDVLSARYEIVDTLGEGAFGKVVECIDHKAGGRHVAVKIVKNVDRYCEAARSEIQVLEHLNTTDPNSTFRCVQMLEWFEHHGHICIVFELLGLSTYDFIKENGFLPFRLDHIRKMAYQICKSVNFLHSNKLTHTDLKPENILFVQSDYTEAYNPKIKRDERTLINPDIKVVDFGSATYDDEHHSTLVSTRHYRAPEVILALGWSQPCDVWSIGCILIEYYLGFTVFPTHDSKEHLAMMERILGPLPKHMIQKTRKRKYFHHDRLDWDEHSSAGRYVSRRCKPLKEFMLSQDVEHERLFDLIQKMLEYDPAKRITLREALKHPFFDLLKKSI

CLK1 [3] = molecular target: T3, CLK1; experiment: biochemical
CDK1 = tested on: CDK1; design: method as in PMID 17981370, PMID 16644220; conditions: Figure 2; earlier work; cited from earlier work
DYRK1A [4] = molecular target: T1, DYRK1A; experiment: DYRK1A inhibition of earlier compounds I and II (Figure 2); assay type: biochemical; conditions: list of targeted kinases extended for earlier compounds
[5] = 15 μM ATP, 30 min, 30 °C, triplicate, <50% inhibition at 10 μM = IC50 >10 μM, read-out: DYRK1A IC50
[6] = 15 μM ATP, 30 min, 30 °C, triplicate, <50% inhibition at 10 μM = IC50 >10 μM

Row | IC50 (DYRK1A [1]) [nM] | IC50 (CDK5/p25) [µM] | IC50 (CLK1 [3]) [nM] | DYRK1A IC50 (DYRK1A [4]) | IC50 (DYRK1A [4]) [nM] | SMILES | IC50 (DYRK1A [1]; [5]) [nM] | IC50 (GSK-3α/β) [nM] | IC50 (CDK5/p25; [6]) [µM] | IC50 (CK1δ/ε) [µM] | IC50 (CLK1 [2]) [nM] | CDK1 IC50 (CDK1) | IC50 (CDK1) [nM]
1 | 7700 | > 10 | 1300 |  |  | COCCCn1cnc2ccc3nc(C#N)sc3c2c1=O [Compound 11c, 8-(3-Methoxypropyl)-9-oxo-8,9-dihydrothiazolo[5,4-f]quinazoline-2-carbonitrile] |  | 1200 |  | > 10 |  |  | 
2 | 370 | > 10 | 490 |  |  | CCOC(=N)c1nc2ccc3ncn(CCCOC)c(=O)c3c2s1 [Compound 14c, Ethyl 8-(3-methoxypropyl)-9-oxo-8,9-dihydrothiazolo[5,4-f]quinazoline-2-carboximidoate] |  | 170 |  | > 10 |  |  | 
3 | 420 | > 10 | 43 |  |  | CC(C)OC(=N)c1nc2ccc3ncn(C4CC4)c(=O)c3c2s1 [Compound 15a, Isopropyl 8-cyclopropyl-9-oxo-8,9-dihydrothiazolo[5,4-f]quinazoline-2-carbimidate] |  | 420 |  | > 10 |  |  | 
4 | 820 | > 10 | 1900 |  |  | CCOC(=N)c1nc2ccc3ncn(CCOC)c(=O)c3c2s1 [Compound 14b, Ethyl 8-(2-methoxyethyl)-9-oxo-8,9-dihydrothiazolo[5,4-f]quinazoline-2-carboximidoate] |  | 1200 |  | > 10 |  |  | 
5 |  |  |  | micromolar | 1500 | CCn1cnc2ccc3nc(C(=N)OCc4ccccc4)sc3c2c1=O [II] |  |  |  |  |  | micromolar range | 1300

Further lines, the compound ahead of its results:

Row | SMILES | IC50 (DYRK1A [1]) [nM] | IC50 (CDK5/p25) [µM] | IC50 (CLK1 [3]) [nM] | DYRK1A IC50 (DYRK1A [4]) | IC50 (DYRK1A [4]) [nM] | IC50 (DYRK1A [1]; [5]) [nM] | IC50 (GSK-3α/β) [nM] | IC50 (CDK5/p25; [6]) [µM] | IC50 (CK1δ/ε) [µM] | IC50 (CLK1 [2]) [nM] | CDK1 IC50 (CDK1) | IC50 (CDK1) [nM]
6 | COC(=N)c1nc2ccc3ncn(CCN(C)C)c(=O)c3c2s1 [Compound 12i, Methyl 8-[(3-dimethylamino)ethyl]-9-oxo-8,9-dihydrothiazolo[5,4-f]quinazoline-2-carbimidate] |  |  |  |  |  | 1000 | 1800 | > 10 | > 10 | 1800 |  | 
7 | COCCCn1cnc2ccc3nc(C(=N)OC(C)C)sc3c2c1=O [Compound 15c, Isopropyl 8-(3-methoxypropyl)-9-oxo-8,9-dihydro[1, 3]thiazolo[5,4-f]quinazoline-2-carboximidate] |  |  |  |  |  | 950 | 270 | > 10 | > 10 | 1200 |  | 
8 | CC(C)n1cnc2ccc3nc(C(=N)OCc4ccccc4)sc3c2c1=O [Compound 13d, Benzyl 8-isopropyl-9-oxo-8,9-dihydro[1, 3]thiazolo[5,4-f]quinazoline-2-carbimidate] |  |  |  |  |  |  | 57 | > 10 | > 10 | 270 |  | 
9 | COCCn1cnc2ccc3nc(C(=N)OC)sc3c2c1=O [Compound 12b, Methyl 8-(2-methoxyethyl)-9-oxo-8,9-dihydrothiazolo[5,4-f]quinazoline-2-carbimidate] |  |  |  |  |  | 390 | 1200 | > 10 | > 10 | 510 |  | 
10 | COC(=N)c1nc2ccc3ncn(C4CCC4)c(=O)c3c2s1 [Compound 12f, Methyl 8-cyclobutyl-9-oxo-8,9-dihydrothiazolo[5,4-f]quinazoline-2-carbimidate] | 130 | > 10 | 91 |  |  |  | 160 |  | > 10 |  |  | 
11 | COCCn1cnc2ccc3nc(C(=N)OC(C)C)sc3c2c1=O [Compound 15b, Isopropyl 8-(2-methoxyethyl)-9-oxo-8,9-dihydro[1, 3]thiazolo[5,4-f]quinazoline-2-carboximidate] |  |  |  |  |  | 3900 | 2500 | > 10 | > 10 | 2100 |  | 
12 | N=C(OCc1ccccc1)c1nc2ccc3ncn(C4CCCC4)c(=O)c3c2s1 [Compound 13e, Benzyl 8-cyclopentyl-9-oxo-8,9-dihydrothiazolo[5,4-f]quinazoline-2-carbimidate] | 62 | > 10 | 320 |  |  |  | 28 |  | > 10 |  |  | 
